Measurements reported in paper PMC4323000 (Oncotarget, 2015).
“Also recorded” adds a separate entry of the source. Where two headings read alike, the source gives them in different places.

Key:
[1] = cited from earlier work
[2] = test system: ABCG2; settings: cited from earlier work
[3] = cited from earlier work; remark: listed apart in the source
[4] = test system: ABCG2; settings: cited from earlier work; remark: listed apart in the source
[5] = test system: HEK293-pcDNA3.1 cells; settings: at 100 μM; cited from earlier work
[6] = Pharmacokinetic study of MBL-II-141, CPT-11 and SN-38 (blood, liver, brain; LC-MS/MS); settings: for Mean of differences in Brain levels, compound alone versus CPT-11 + MBL-II-141 / Mean of differences in Blood levels, compound alone versus CPT-11 + MBL-II-141 / Mean of differences in Liver levels, compound alone versus CPT-11 + MBL-II-141: paired t-test over time; for Mean of differences in Brain levels, compound alone versus CPT-11 + MBL-II-141: P (two tailed): CPT-11 0.0416, MBL-II-141 0.1059; for Mean of differences in Blood levels, compound alone versus CPT-11 + MBL-II-141: P (two tailed): CPT-11 0.3616, SN-38 0.0299, MBL-II-141 0.1555; for Mean of differences in Liver levels, compound alone versus CPT-11 + MBL-II-141: P (two tailed): CPT-11 0.6878, SN-38 0.1727, MBL-II-141 0.1046
[7] = test system: HEK293-ABCG2 cells; settings: at 100 μM; cited from earlier work
[8] = test system: ABCC1; settings: mitoxantrone or calcein as substrates; cited from earlier work
[9] = test system: SCID mice; test: MBL-II-141 tolerance assay; assay type: in vivo
[10] = test system: HEK293 ABCG2 xenografts; test: Chemosensitization of well-established (8 mm) ABCG2-positive tumors; settings: for slope of tumor growth: solvents 61 ± 3
[11] = Solubility for experimental formulation; assay type: physicochemical
Description: The experimental formulation of MBL-II-141 was determined according to its solubility properties.

[12] = test system: HEK-ABCG2 xenografts; test: Chemosensitization of just-established ABCG2-positive tumors
[13] = MBL-II-141 oral absorption study (force-feeding versus IP); assay type: in vivo, mouse
Description: The availability of MBL-II-141 was evaluated by force-feeding (n = 4), and compared to intraperitoneal injection (n = 4). CD1 mice were treated with 10 mg/kg of MBL-II-141. After 4 h of treatment, total blood was collected from animals treated with heparin. Samples were stored at −80°C until quantification.
Assay accuracy was in the range of 91–108%. […] Results in tissues were normalized to cellular protein content.

[14] = test system: HEK-pcDNA3.1 xenografts; test: Chemosensitization study, just-established ABCG2-negative tumors
[15] = test system: HEK293 cells; settings: at 100 μM; cited from earlier work
[16] = parameters: method as in PMID 23150210; settings: P.O.; ref [25]; cited from earlier work
[17] = test system: ABCG2-overexpressing tumors; settings: ref per compound in Table 2; cited from earlier work
[18] = read-out: In vitro Inhibition (IC50), substrate Hoechst 3342, ref [6],[24],[49] (Ko143), [40] (YHO-13177)
[19] = I.P., ref per compound in Table 2
[20] = oral, ref per compound in Table 2
[21] = MBL-II-141 10 mg/kg IP, SCID mice
[22] = combination MBL-II-141 10 mg/kg + CPT-11 20 mg/kg
[23] = MBL-II-141 alone 10 mg/kg + PBS
[24] = read-out: In vitro Inhibition (IC50), substrate Mitoxantrone, ref [13],[21],[35],[45]–[48] (GF120918), [7] (Triclabendazole)
[25] = CPT-11 20 mg/kg + MBL-II-141 10 mg/kg IP

## COc1ccc2c3c([nH]c2c1)[C@H](CC(C)C)N1C(=O)[C@H](CCC(=O)OC(C)(C)C)NC(=O)[C@@H]1C3 [Ko143]
[1]; ABCB1(−/−) mice
  increase of topotecan plasma levels (oral availability): […]
[1]; of Topotecan, ref [13],[21],[35],[45]–[48] (GF120918), [6],[24],[49] (Ko143)
  In vivo Impact on Pharmacokinetics: Topotecan: Yes
[2]; [18]
  IC50: […]
[2]; read-out: In vitro Inhibition (IC50), substrate Pheophorbide A, ref [6],[24],[49]
  IC50: […]
[3]; [19]
  In vivo Toxicity, Acute: […]
[3]; [20]
  In vivo Toxicity, Acute: > 50 mg/kg oral
[4]; ref per compound in Table 2
  In vitro ABCG2 Specificity: Yes

## COc1ccc2[nH]cc(CCNC(=O)c3cc(=O)c4c(OCc5ccc(Br)cc5)cccc4o3)c2c1 [MBL-II-141, 5-(4-bromobenzyloxy)-2-(2-(5-methoxyindolyl)ethyl-1-carbonyl)-4H-chromen-4-one]
[5]
  cell survival: 75%
[6]; 10 mg/kg IP, injections separated by 4 h, blood 1 h or 4 h after last injection
  blood level after the third injection versus one or two injection(s): slight increase
[6]; 30 min
  Brain/Plasma ratio, fold-change induced by the combination treatment: 1.1 fold-change
  Liver/Plasma ratio, fold-change induced by the combination treatment: 2.5 fold-change
[6]; 60 min
  Brain/Plasma ratio, fold-change induced by the combination treatment: 0.3 fold-change
  Liver/Plasma ratio, fold-change induced by the combination treatment: 0.8 fold-change
[6]; 120 min
  Brain/Plasma ratio, fold-change induced by the combination treatment: 0.4 fold-change
  Liver/Plasma ratio, fold-change induced by the combination treatment: 1.1 fold-change
[6]; 240 min
  Brain/Plasma ratio, fold-change induced by the combination treatment: 3.0 fold-change
  Liver/Plasma ratio, fold-change induced by the combination treatment: 3.0 fold-change
[6]; [21]
  level in total blood at 6 h: below the detection limit
  time of highest level in total blood: 0.5 h
[6]; MBL-II-141 10 mg/kg IP, SCID mice, 10 mg/kg
  distribution into the brain: low, but still detectable
[6]; of CPT-11, SCID mice
  In vivo Impact on Pharmacokinetics: CPT-11: Yes
[6]
  Mean of differences in Brain levels, compound alone versus CPT-11 + MBL-II-141: 38.53
  Mean of differences in Blood levels, compound alone versus CPT-11 + MBL-II-141: 122.0
  Mean of differences in Liver levels, compound alone versus CPT-11 + MBL-II-141: -39.78
[7]
  cell survival: 60%
[8]
  effect on ABCC1-mediated transport: without any effect
[2]
  type of ABCG2 inhibition towards mitoxantrone: non-competitive
[2]; read-out: IC50, inhibition of ABCG2 (mitoxantrone efflux), substrate mitoxantrone
  IC50: 0.11 µM
[9]; 10 mg/kg per mouse
  acute toxicity in pilot study: no acute toxicity
[9]; 50 mg/kg 3 times a week for 1 month
  finding in the peritoneal cavity: slight deposit
[9]; 10, 30 or 50 mg/kg with CPT-11 20 mg/kg
  macroscopic analysis of organs (brain, heart, lungs, kidneys, liver and spleen): no apparent lesions
[9]; I.P., mice
  In vivo Toxicity, Acute: > 50 mg/kg I.P.
[9]; IP 10, 30 or 50 mg/kg in combination with CPT-11 20 mg/kg
  behavior (physical activity, appearance): did not show any modification in behavior
[9]; at 50 mg/kg, preliminary data
  tolerance: well tolerated
[9]; regardless of the administered dose of MBL-II-141 (10, 30, 50 mg/kg)
  complete blood count proportion: unchanged
[9]; reiterated administrations
  safety on reiterated administrations: without any associated animal death or loss of weight
[10]; [22]
  mice survival: markedly increased
  time at which tumors reached maximal size versus CPT-11 alone: about two weeks later
  slope of tumor growth: 41 ± 1 mm^3/day
[10]; paired t-test P (two tailed) < 0.0001, 95% CI 54.71 to 135.0
  Mean of differences between tumor growth curves, Solvents versus MBL-II-141: 94.84
[10]; paired t-test P (two tailed) < 0.0001, 95% CI 162.2 to 329.4
  Mean of differences between tumor growth curves, CPT-11 versus MBL-II-141 + CPT-11: 245.8
[10]; paired t-test P (two tailed) < 0.0001, 95% CI 177.3 to 460.0
  Mean of differences between tumor growth curves, Solvents versus MBL-II-141 + CPT-11: 318.6
[10]; paired t-test P (two tailed) < 0.0001, 95% CI 240.1 to 562.7
  Mean of differences between tumor growth curves, MBL-II-141 versus MBL-II-141 + CPT-11: 401.4
[10]; single agent (MBL-II-141 10 mg/kg or CPT-11 20 mg/kg) three times a week
  slope of tumor growth: 68 ± 3 mm^3/day
[4]; MBL-II-141
  In vitro ABCG2 Specificity: Yes
[11]
  maximal solubility in DMSO: 250 mg/mL
[12]; HEK-ABCG2, paired t-test P (two tailed) 0.015, 95% CI 16.93 to 138.1
  Mean of differences between tumor growth curves, vehicles versus MBL-II-141 alone: 77.51
[12]; MBL-II-141 10 mg/kg + CPT-11 20 mg/kg IP three times a week, freshly implanted tumors, SCID mice
  ABCG2-positive tumors whose growth was completely blocked: 90%
[12]; MBL-II-141 10 mg/kg + CPT-11 20 mg/kg, even 40 days after end of treatment
  survival rate of mice bearing ABCG2-positive tumors: 90%
[12]; [23]
  inhibitory effect on growth of ABCG2-positive tumors: not observed
[12]; with CPT-11, ABCG2-positive xenografts
  In vivo Impact on Tumor growth: Yes
[13]; 10 mg/kg, difference not significant
  blood level at 4 h under force-feeding in comparison to IP route (lower): approximately 2 fold
[13]; oral (force-feeding), mice
  In vivo Toxicity, Acute: > 10 mg/kg oral
[14]; HEK-pcDNA3.1, paired t-test P (two tailed) 0.0006, 95% CI 171.0 to 512.9
  Mean of differences between tumor growth curves, vehicles versus MBL-II-141 alone: 342
[14]; [23]
  effect on growth of ABCG2-negative tumors: slight inhibitory effect
[15]
  cell death of HEK293 cells: less than 25%

## CNC(=O)c1cc(Oc2ccc(NC(=O)Nc3ccc(Cl)c(C(F)(F)F)c3)cc2)ccn1 [Sorafenib]
[3]; [20]
  In vivo Toxicity, Acute: > 25 mg/kg oral
[16]
  In vivo Toxicity, Chronic: > 25 mg/kg P.O.
[4]; ref per compound in Table 2
  In vitro ABCG2 Specificity: No
[17]
  In vivo Impact on Tumor growth: Yes

## CSc1nc2cc(Cl)c(Oc3cccc(Cl)c3Cl)cc2[nH]1 [Triclabendazole]
[1]; of Nitrofurantoin, ref [7]
  In vivo Impact on Pharmacokinetics: Nitrofurantoin: Yes
[2]; [24]
  IC50: ~10 µM
[3]; [19]
  In vivo Toxicity, Acute: > 100 mg/kg I.P.

## CCc1c2c(nc3ccc(OC(=O)N4CCC(N5CCCCC5)CC4)cc13)-c1cc3c(c(=O)n1C2)COC(=O)[C@]3(O)CC [CPT-11, irinotecan]
[6]; [25]
  increase of CPT-11 brain levels in the presence of MBL-II-141: approximately 2 fold
[6]; CPT-11 20 mg/kg IP
  fraction lost from the blood at 4 h: 90%
[6]
  Mean of differences in Brain levels, compound alone versus CPT-11 + MBL-II-141: -2.085
  Mean of differences in Blood levels, compound alone versus CPT-11 + MBL-II-141: -220.0
  Mean of differences in Liver levels, compound alone versus CPT-11 + MBL-II-141: -28.86
[14]; CPT-11 alone 20 mg/kg
  effect on growth of ABCG2-negative cells (tumors): completely blocked
  survival of mice bearing ABCG2-negative tumors: 100%

## COc1ccc(/C(C#N)=C/c2ccc(N3CCC(O)CC3)s2)cc1OC [YHO-13177]
[2]; [18]
  IC50: ~0.3 µM
[3]; I.V., ref [13],[21],[35],[45]–[48] (GF120918), [40] (YHO-13177)
  In vivo Toxicity, Acute: > 30 mg/kg I.V.
[3]; [20]
  In vivo Toxicity, Acute: > 200 mg/kg oral
[4]; ref per compound in Table 2
  In vitro ABCG2 Specificity: Yes
[17]
  In vivo Impact on Tumor growth: Yes

## COc1cc2c(cc1OC)CN(CCc1ccc(NC(=O)c3cccc4c(=O)c5cccc(OC)c5[nH]c34)cc1)CC2 [GF120918]
[2]; [24]
  IC50: 0.31 µM
[4]; ref per compound in Table 2
  In vitro ABCG2 Specificity: No
[17]
  In vivo Impact on Tumor growth: Yes

## CCc1c2c(nc3ccc(O)cc13)-c1cc3c(c(=O)n1C2)COC(=O)[C@]3(O)CC [SN-38]
[6]; 30 min
  Liver/Plasma ratio, fold-change induced by the combination treatment: 0.9 fold-change
[6]; 60 min
  Liver/Plasma ratio, fold-change induced by the combination treatment: 0.6 fold-change
[6]; 120 min
  Liver/Plasma ratio, fold-change induced by the combination treatment: 1.1 fold-change
[6]; 240 min
  Liver/Plasma ratio, fold-change induced by the combination treatment: 1.0 fold-change
[6]; 480 min
  Liver/Plasma ratio, fold-change induced by the combination treatment: 1.0 fold-change
[6]; [25]
  change of SN-38 blood levels in the presence of MBL-II-141: increased; also recorded: strongly increased
[6]; SCID mice
  difference between CPT-11 and SN-38 levels (SN-38 lower): 19 fold
[6]; SN-38 after CPT-11 20 mg/kg IP
  time until which detected in blood: 6 h
[6]; after CPT-11 20 mg/kg IP, with or without MBL-II-141
  SN-38 levels in the brain: below the limits of quantification; also recorded: under the limit of detection
[6]
  Mean of differences in Blood levels, compound alone versus CPT-11 + MBL-II-141: -109.6
  Mean of differences in Liver levels, compound alone versus CPT-11 + MBL-II-141: -12.65
[1]; ICR mice, 1 h after the injection
  SN-38 plasma levels lower than CPT-11: 27 fold
